Data: patent US4272437A, “Antibacterial agents, and 4-thio azetidinone intermediates” (priority 1979, dated 1981)
Read-outs that look alike come from different tables or passages of the source.

Columns and labels:
[1] = system: Ser. marcescens A-20019; assay: MIC, tube dilution, Serratia marcescens A20019; assay type: cell-based; details: overnight 37° C.; for Minimum Inhibitory Concentration (M.I.C.): Serratia marcescens A20019; for MIC: Serratia marcescens, A20019, Serratia marcescens A20019, read-out: Minimum Inhibitory Concentration (M.I.C.)
Description: (§1) Representative compounds of the present invention were subjected to in vitro antibiotic screening against a variety of microorganisms.

[2] = system: Staph. aureus A-9537; assay: MIC, tube dilution, Staphylococcus aureus A9537; assay type: cell-based; details: overnight 37° C., Nutrient Broth; for MIC: Staphylococcus aureus, A9537, Staph. aureus A9537, read-out: Minimum Inhibitory Concentration (M.I.C.)
Description: as §1

[3] = system: E. coli A-15119; assay: MIC, tube dilution, Escherichia coli A15119; assay type: cell-based; details: overnight 37° C.; for Minimum Inhibitory Concentration (M.I.C.): E. coli A15119; for MIC: Escherichia coli, A15119, E. coli A15119, read-out: Minimum Inhibitory Concentration (M.I.C.)
Description: as §1

[4] = system: K. pneumoniae A-15130; assay: MIC, tube dilution, Klebsiella pneumoniae A15130; assay type: cell-based; details: overnight 37° C.; for Minimum Inhibitory Concentration (M.I.C.): K. pneumoniae A15130; for MIC: Klebsiella pneumoniae, A15130, K. pneumoniae A15130, read-out: Minimum Inhibitory Concentration (M.I.C.)
Description: as §1

[5] = system: Staph. aureus A-9537 and 50% serum; assay: MIC, tube dilution, Staph. aureus A9537 + 50% serum; assay type: cell-based, Staphylococcus aureus; details: overnight 37° C.; for MIC: Staphylococcus aureus, read-out: Minimum Inhibitory Concentration (M.I.C.)
Description: as §1

[6] = system: Ps. aeruginosa A-9843A; assay: MIC, tube dilution, Pseudomonas aeruginosa A9843A; assay type: cell-based; details: overnight 37° C.; for MIC: Pseudomonas aeruginosa, A9843A, read-out: Minimum Inhibitory Concentration (M.I.C.), Pseudomonas aeruginosa A9843A
Description: as §1

[7] = system: Ent. cloacae A-9659; assay: MIC, tube dilution, Enterobacter cloacae A9659; assay type: cell-based; details: overnight 37° C.; for Minimum Inhibitory Concentration (M.I.C.): Enterobacter cloacae A9659; for MIC: Enterobacter cloacae, A9659, Enterobacter cloacae A9659, read-out: Minimum Inhibitory Concentration (M.I.C.)
Description: as §1

[8] = system: Ps. aeruginosa A-21213; assay: MIC, tube dilution, Pseudomonas aeruginosa A21213; assay type: cell-based; details: Pseudomonas aeruginosa A21213, overnight 37° C.; for MIC: read-out: Minimum Inhibitory Concentration (M.I.C.)
Description: as §1

[9] = system: Staph. aureus (Meth-Res) A-15097; assay: MIC, tube dilution, Staphylococcus aureus A15097 (Meth-Res); assay type: cell-based; details: overnight 37° C.; for MIC: Staphylococcus aureus
Description: as §1

[10] = system: Pr. morganii A-15153; assay: MIC, tube dilution, Proteus morganii A15153; assay type: cell-based; details: overnight 37° C.; for MIC: Morganella morganii, A15153, Proteus morganii A15153, read-out: Minimum Inhibitory Concentration (M.I.C.)
Description: as §1

[11] = system: E. coli A-20341-1; assay: MIC, tube dilution, Escherichia coli A20341-1; assay type: cell-based
Description: as §1

[12] = system: Pr. mirabilis A-9900; assay: MIC, tube dilution, Proteus mirabilis A9900; assay type: cell-based; details: overnight 37° C.; for Minimum Inhibitory Concentration (M.I.C.): Proteus mirabilis A9900; for MIC: Proteus mirabilis, A9900, Proteus mirabilis A9900, read-out: Minimum Inhibitory Concentration (M.I.C.)
Description: as §1

[13] = system: Str. faecalis A-20688; assay: MIC, tube dilution, Streptococcus faecalis A20688; assay type: cell-based; details: overnight 37° C.; for MIC: Enterococcus faecalis, A20688, Str. faecalis A20688, read-out: Minimum Inhibitory Concentration (M.I.C.)
Description: as §1

[14] = system: Staph. aureus (Pen-Res) A-9606; assay: MIC, tube dilution, Staphylococcus aureus A9606 (Pen-Res); assay type: cell-based; details: overnight 37° C.; for MIC: Staphylococcus aureus
Description: as §1

[15] = system: Providencia stuartii A21205; assay: MIC, tube dilution, Providencia stuartii (Pr. rettgeri) A21205; assay type: cell-based; details: for MIC: Providencia stuartii
Description: as §1

[16] = system: Str. pyogenes A-9604; assay: MIC, tube dilution, Streptococcus pyogenes A9604; assay type: cell-based; details: overnight 37° C., Nutrient Broth; for MIC: Streptococcus pyogenes, A9604, Str. pyogenes A9604, read-out: Minimum Inhibitory Concentration (M.I.C.)
Description: as §1

[17] = system: Str. pneumoniae A-9585; assay: MIC, tube dilution, Streptococcus pneumoniae A9585; assay type: cell-based; details: overnight 37° C., Nutrient Broth; for MIC: Streptococcus pneumoniae, A9585, Str. pneumoniae A9585, read-out: Minimum Inhibitory Concentration (M.I.C.)
Description: as §1

[18] = system: Pr. vulgaris A-9716; assay: MIC, tube dilution, Proteus vulgaris / Proteus mirabilis A9716; assay type: cell-based, Proteus vulgaris (name changed to Proteus mirabilis); details: overnight 37° C.; for Minimum Inhibitory Concentration (M.I.C.): Proteus vulgaris / Proteus mirabilis A9716; for MIC: Proteus vulgaris
Description: as §1

[19] = system: Ent. cloacae A-9656; assay: MIC, tube dilution, Enterobacter cloacae A9656; assay type: cell-based; details: overnight 37° C.; for MIC: read-out: Minimum Inhibitory Concentration (M.I.C.)
Description: as §1

[20] = system: Klebsiella species A20468; assay: MIC, tube dilution, Klebsiella species A20468; assay type: cell-based; details: Klebsiella species (K. pneumoniae) A20468, overnight 37° C.; for MIC: read-out: Minimum Inhibitory Concentration (M.I.C.)
Description: as §1

Row | Compound | Minimum Inhibitory Concentration (M.I.C.) [1] [µg/mL] | MIC [1] [µg/mL] | MIC [2] [µg/mL] | Minimum Inhibitory Concentration (M.I.C.) [3] [µg/mL] | MIC [3] [µg/mL] | Minimum Inhibitory Concentration (M.I.C.) [4] [µg/mL] | MIC [4] [µg/mL] | MIC [5] [µg/mL] | Minimum Inhibitory Concentration (M.I.C.) [5] [µg/mL] | MIC [6] [µg/mL] | Minimum Inhibitory Concentration (M.I.C.) [7] [µg/mL] | MIC [7] [µg/mL] | MIC [8] [µg/mL] | MIC [10] [µg/mL] | Minimum Inhibitory Concentration (M.I.C.) [12] [µg/mL] | MIC [12] [µg/mL] | MIC [13] [µg/mL] | MIC [16] [µg/mL] | MIC [17] [µg/mL] | Minimum Inhibitory Concentration (M.I.C.) [18] [µg/mL] | further results
1 | O=C([O-])C1=C(COCc2ccccc2)S[C@@H]2CC(=O)N12.[Na+] [Preparation 14 (Na^+ Salt), Sodium 2-(Benzyloxymethyl)penem-3-carboxylate] | 125 | 63 | 0.5 | 8 | 16 | > 125 | 125 | 32 | 63 | > 125 | 63 | 32 | > 125 | 16 | 1 | 2 | 32 | 0.06 | 0.03 | 2 | MIC ([9]; read-out: Minimum Inhibitory Concentration (M.I.C.), Staph. aureus A15097 (Meth-Res)): > 125 µg/mL; MIC ([11]; Escherichia coli, A203411; E. coli A20341-1; overnight 37° C.; read-out: Minimum Inhibitory Concentration (M.I.C.)): > 125 µg/mL; MIC ([14]; read-out: Minimum Inhibitory Concentration (M.I.C.), Staph. aureus A9606 (Pen-Res)): 32 µg/mL; MIC ([15]; A21205, read-out: Minimum Inhibitory Concentration (M.I.C.)): 63 µg/mL; MIC ([18]; A9716, read-out: Minimum Inhibitory Concentration (M.I.C.), Proteus vulgaris / Proteus mirabilis A9716): 4 µg/mL; MIC ([19]; Enterobacter cloacae A9656): 125 µg/mL; MIC [20]: > 125 µg/mL
2 | O=C(O)CCC1=C(C(=O)O)N2C(=O)CC2S1 (stereo not shown) [Preparation 11, Disodium 2-(2-carboxyethyl)penem-3-carboxylate] | – | 4 | 16 | – | 16 | – | 63 | > 63 | – | > 125 | – | 63 | > 125 | 63 | – | 4 | 125 | 4 | 0.13 | – | MIC ([9]; Staph. aureus A15097 (Meth-Res), read-out: Minimum Inhibitory Concentration (M.I.C.)): 63 µg/mL; MIC ([11]; Escherichia coli, A203411, E. coli A20341-1; overnight 37° C.; read-out: Minimum Inhibitory Concentration (M.I.C.)): 63 µg/mL; MIC ([14]; Staph. aureus A9606 (Pen-Res), read-out: Minimum Inhibitory Concentration (M.I.C.)): 32 µg/mL; MIC ([15]; A21205, Providencia stuartii (Pr. rettgeri) A21205, overnight 37° C., read-out: Minimum Inhibitory Concentration (M.I.C.)): 1 µg/mL; MIC ([18]; A9716, Proteus vulgaris / Proteus mirabilis A9716, read-out: Minimum Inhibitory Concentration (M.I.C.)): 4 µg/mL; MIC ([19]; Enterobacter cloacae, A9656, Enterobacter cloacae A9656): 63 µg/mL; MIC [20]: > 125 µg/mL
3 | O=C(O)C1=C(COc2ccccc2)S[C@@H]2CC(=O)N12 [Example 11, 2-Phenoxymethylpenem-3-carboxylic Acid] | > 125 | – | – | 63 | – | > 125 | – | – | 63 | – | > 125 | – | – | – | 16 | – | – | – | – | 16 | Minimum Inhibitory Concentration (M.I.C.) ([2]; Staph. aureus A9537): 1 µg/mL; Minimum Inhibitory Concentration (M.I.C.) ([6]; Pseudomonas aeruginosa A9843A): > 125 µg/mL; Minimum Inhibitory Concentration (M.I.C.) [8]: > 125 µg/mL; Minimum Inhibitory Concentration (M.I.C.) ([9]; Staph. aureus A15097 (Meth-Res)): 1 µg/mL; Minimum Inhibitory Concentration (M.I.C.) ([10]; Proteus morganii A15153): 16 µg/mL; Minimum Inhibitory Concentration (M.I.C.) ([11]; E. coli A20341-1; overnight 37° C.): > 125 µg/mL; Minimum Inhibitory Concentration (M.I.C.) ([13]; Str. faecalis A20688): 63 µg/mL; Minimum Inhibitory Concentration (M.I.C.) ([14]; Staph. aureus A9606 (Pen-Res)): .5 µg/mL; Minimum Inhibitory Concentration (M.I.C.) ([15]; Providencia stuartii (Pr. rettgeri) A21205, overnight 37° C.): 63 µg/mL; Minimum Inhibitory Concentration (M.I.C.) ([16]; Str. pyogenes A9604): .5 µg/mL; Minimum Inhibitory Concentration (M.I.C.) ([17]; Str. pneumoniae A9585): .5 µg/mL; Minimum Inhibitory Concentration (M.I.C.) ([19]; Enterobacter cloacae A9656): > 125 µg/mL; Minimum Inhibitory Concentration (M.I.C.) [20]: > 125 µg/mL
